Assay results from US10538230B2, “Thiol based resin system for removal of copper ions from hydraulic fluid” (THE BOEING COMPANY, priority 2015, dated 2020).

Assay: Removal of Cu[II] ions from hydraulic fluid with thiol compounds of structure (2), ICP measurement
Settings: Skydrol LD-4 with about 10 ppm copper (II) acetylacetate; for [Cu] T = 24 hr.: after 24 hr. contact with equimolar amount of thiol compound; for [Cu] T = 0 hr.: before addition of the thiol compound
Description: Copper (II) acetylacetate is added to a sample of hydraulic fluid (e.g., Skydrol® LD-4 (Eastman Chemical Co. (Kingsport, Tenn. [US])), though any phosphate ester hydraulic fluid is suitable) to provide a final concentration of about 10 ppm copper (II) acetylacetate in the fluid. The amount of copper (II) is measured in the solution using an Inductively Coupled Plasma Spectrometer (ICP). An equimolar amount of a thiol compound of structure (2) is added to a portion of the copper (II) acetate-hydraulic fluid solution and the solution-mixture is mixed using a vortex mixer for 1.5 minutes. The solution-mixture is allowed to stand for 24 hours and the copper (II) content present in the solution is measured using an Inductively Coupled Plasma Spectrometer (ICP). The amount of copper sequestered or complexed by the thiol compound is determined from the difference in the copper (II) concentrations before and after addition of the thiol compound.
Table 5 presents results of Copper (II) content in aliquots of hydraulic fluid (Skydrol® LD-4) containing copper (II) acetylacetate to a final concentration of about 10 ppm copper (II) acetylacetate and contacted with an equimolar amount of the indicated thiol compounds for 24 hours.

| Compound | [Cu] T = 24 hr. | [Cu] T = 0 hr. |
| --- | --- | --- |
| Sc1nnc(S)s1 [I, 1,3,4-Thiadiazole-2,5-dithiol] | 7.9 ppm | 10.8 ppm |
| Sc1nnc(SSc2nnc(S)s2)s1 [II, 5,5′-Dithiobis(1,3,4-Thiadiazole-2(3H)-thione)] | 6.4 ppm | 11.1 ppm |
